# ChEMBL document CHEMBL5661975, “Discovery and pharmacologic characterization of CP-724,714, a selective ErbB2 tyrosine kinase inhibitor” (Cancer Res, 2007)
# Calls of active or inactive are those of the source. No cut-off for these calls is given here.
# Key:
# [1] = Average plasma concentration (0 to 4 hrs) in human erbB2 transfected FRE cells xenografted bearing female athymic nu-nu CD-1 mouse at 50 mg/kg, po QD administrated for 8 to 40 days by liquid chromatography-tandem mass spectrometry analysis; type: ADME, organism-based; settings: in vivo, time 8-40 day
# BT-20 = test: Antiproliferative activity against human BT-20 cells assessed as inhibition of cell growth; type: functional, cell-based
# LoVo = test: Antitumor activity against human LoVo low expressing erbB2 cells xenografted bearing female athymic nu-nu CD-1 mouse assessed as inhibition in tumor growth at 100 mg/kg, po bid administrated for 14 to 31 days relative to control; type: functional; settings: time 14-31 day
# MDA-MB-468 = test: Antiproliferative activity against human MDA-MB-468 cells assessed as inhibition of cell growth; type: functional, cell-based
# [2] = target: Receptor tyrosine-protein kinase erbB-2 (Homo sapiens, UniProt P04626); test: Inhibition of human recombinant intracellular domain of erbB2; type: cell-based
# Sequence of Receptor tyrosine-protein kinase erbB-2 (P04626 whole entry, the tested form may be a part): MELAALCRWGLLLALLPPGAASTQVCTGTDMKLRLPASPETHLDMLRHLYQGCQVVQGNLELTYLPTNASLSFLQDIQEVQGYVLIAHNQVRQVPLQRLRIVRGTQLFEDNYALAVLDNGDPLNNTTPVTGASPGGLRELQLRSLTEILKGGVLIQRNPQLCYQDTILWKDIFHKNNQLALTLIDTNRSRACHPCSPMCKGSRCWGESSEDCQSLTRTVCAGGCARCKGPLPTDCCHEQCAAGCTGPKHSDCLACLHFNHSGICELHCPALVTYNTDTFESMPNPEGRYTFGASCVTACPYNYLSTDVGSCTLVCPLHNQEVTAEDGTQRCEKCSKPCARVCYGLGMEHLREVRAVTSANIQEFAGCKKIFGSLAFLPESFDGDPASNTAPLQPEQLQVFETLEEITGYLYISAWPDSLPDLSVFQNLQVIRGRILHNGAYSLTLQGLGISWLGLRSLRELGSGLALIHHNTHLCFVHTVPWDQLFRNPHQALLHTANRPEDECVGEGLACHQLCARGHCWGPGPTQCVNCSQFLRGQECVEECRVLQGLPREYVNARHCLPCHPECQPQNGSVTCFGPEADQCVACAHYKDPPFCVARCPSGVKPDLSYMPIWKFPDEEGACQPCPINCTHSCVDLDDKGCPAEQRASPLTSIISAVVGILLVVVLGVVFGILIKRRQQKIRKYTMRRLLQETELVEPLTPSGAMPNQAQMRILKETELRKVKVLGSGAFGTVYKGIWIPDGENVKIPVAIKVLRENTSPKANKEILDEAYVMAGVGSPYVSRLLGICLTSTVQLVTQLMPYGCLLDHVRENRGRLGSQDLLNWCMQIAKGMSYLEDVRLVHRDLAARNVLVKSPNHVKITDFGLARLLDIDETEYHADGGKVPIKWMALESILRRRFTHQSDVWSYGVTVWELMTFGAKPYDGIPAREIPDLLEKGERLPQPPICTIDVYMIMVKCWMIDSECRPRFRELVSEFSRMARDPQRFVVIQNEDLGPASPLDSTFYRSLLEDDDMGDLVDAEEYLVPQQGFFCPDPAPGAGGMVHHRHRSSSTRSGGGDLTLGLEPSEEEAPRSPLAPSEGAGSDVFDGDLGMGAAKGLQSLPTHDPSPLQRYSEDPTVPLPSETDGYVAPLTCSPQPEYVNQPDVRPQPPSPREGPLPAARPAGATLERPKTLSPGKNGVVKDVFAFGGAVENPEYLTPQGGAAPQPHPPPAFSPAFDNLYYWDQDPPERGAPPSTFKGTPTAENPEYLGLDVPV
# [3] = Plasma concentration in human erbB2 transfected FRE cells xenografted bearing female athymic nu-nu CD-1 mouse at 25 mg/kg, po measured at 30 mins by liquid chromatography-tandem mass spectrometry analysis; type: ADME, organism-based
# BT-474 [4] = test: Antitumor activity against human BT-474 high expressing erbB2 cells xenografted bearing female athymic nu-nu CD-1 mouse assessed as reduction in tumor phospho-Akt level at 30 mg/kg, po after 0.5 hrs administration by western blot analysis relative to control; type: functional; set-up: scale not given: the % may be the effect or the level left
# HCC1419 = test: Antiproliferative activity against human HCC1419 cells assessed as inhibition of cell growth; type: functional, cell-based
# BT-474 [5] = test: Inhibition of colony formation in human BT-474 cells overexpressing erbB2 assessed as decrease in colony formation at 1 micromol/L by methanolic crystal violet staining relative to control; type: functional; settings: dose 1 µmol/L
# [6] = Antiproliferative activity against human EFM-192A cells assessed as inhibition of cell growth; type: functional, cell-based
# COLO 205 = test: Antitumor activity against human COLO 205 low expressing erbB2 cells xenografted bearing female athymic nu-nu CD-1 mouse assessed as inhibition in tumor growth at 100 mg/kg, po bid administrated for 14 to 31 days relative to control; type: functional; settings: time 14-31 day
# [7] = Antiproliferative activity against human SUM225CWN cells assessed as inhibition of cell growth; type: functional, cell-based
# FRE = test: Antitumor activity against human erbB2 transfected FRE cells xenografted bearing female athymic nu-nu CD-1 mouse assessed as tumor erbB2 receptor phosphorylation at 3.125 to 100 mg/kg, po administration by ELISA method; type: functional, organism-based; settings: dose 3.125-100 mg/kg
# MDA-MB-453 [8] = test: Antitumor activity against human MDA-MB-453 expressing erbB2 cells xenografted bearing female athymic nu-nu CD-1 mouse assessed as inhibition in tumor growth at 100 mg/kg, po bid administration and measured at 29 day relative to control; type: functional; settings: MDA-MB-453, 696 h
# BT-474 [9] = test: Antitumor activity against human BT-474 expressing erbB2 cells xenografted bearing female athymic nu-nu CD-1 mouse assessed as inhibition in tumor growth at 50 to 100 mg/kg, po bid administration and measured at 4 day; type: functional, organism-based; settings: dose 50-100 mg/kg
# BT-474 [10] = test: Antitumor activity against human BT-474 expressing erbB2 cells xenografted bearing female athymic nu-nu CD-1 mouse assessed as tumor regression at 100 mg/kg, po bid administration and measured at 40 day relative to control; type: functional
# MDA-MB-453 [11] = test: Antitumor activity against human MDA-MB-453 expressing erbB2 cells xenografted bearing female athymic nu-nu CD-1 mouse assessed as reduction in tumor erbB2 phosphorylation at 100 mg/kg, po bid administration and measured at 29 day by ELISA method relative to control; type: functional; set-up: scale not given: the % may be the effect or the level left
# BT-474 [12] = test: Antitumor activity against human BT-474 expressing erbB2 cells xenografted bearing female athymic nu-nu CD-1 mouse assessed as decrease in tumor growth at 30 mg/kg, po bid administration and measured at 14 day; type: functional, organism-based
# MDA-MB-175-VII = test: Antiproliferative activity against human MDA-MB-175-VII cells assessed as inhibition of cell growth; type: functional, cell-based
# BT-474 [13] = test: Antitumor activity against human BT-474 high expressing erbB2 cells xenografted bearing female athymic nu-nu CD-1 mouse assessed as reduction in tumor phospho-Akt level at 100 mg/kg, po after 0.5 hrs administration by western blot analysis relative to control; type: functional; set-up: scale not given: the % may be the effect or the level left
# [14] = Antitumor activity against human erbB2 transfected FRE cells xenografted bearing female athymic nu-nu CD-1 mouse assessed as reduction in tumor erbB2 receptor phosphorylation at 25 mg/kg, po and measured at 30 mins by ELISA method relative to control; type: functional; set-up: scale not given: the % may be the effect or the level left; settings: 0.5 h
# MDA-MB-453 [15] = test: Antitumor activity against human MDA-MB-453 high expressing erbB2 cells xenografted bearing female athymic nu-nu CD-1 mouse assessed as inhibition in tumor growth at 100 mg/kg, po bid administrated for 8 to 40 days relative to control; type: functional; settings: time 8-40 day
# MDA-MB-231 = test: Antitumor activity against human MDA-MB-231 low expressing erbB2 cells xenografted bearing female athymic nu-nu CD-1 mouse assessed as inhibition in tumor growth at 100 mg/kg, po bid administrated for 14 to 31 days relative to control; type: functional; settings: time 14-31 day
# BT-474 [16] = test: Antitumor activity against human BT-474 expressing erbB2 cells xenografted bearing female athymic nu-nu CD-1 mouse assessed as inhibition in tumor growth at 10 mg/kg, po bid administration and measured at 40 day relative to control; type: functional; settings: BT-474, 960 h
# [17] = Antiproliferative activity against human KPL-1 cells assessed as inhibition of cell growth; type: functional, cell-based
# BT-474 [18] = test: Antitumor activity against human BT-474 expressing erbB2 cells xenografted bearing female athymic nu-nu CD-1 mouse assessed as inhibition in tumor growth at 30 mg/kg, po bid administration and measured at 40 day relative to control; type: functional; settings: BT-474, 960 h
# [19] = Toxicity in human erbB2 transfected FRE cells xenografted bearing female athymic nu-nu CD-1 mouse assessed as body weight loss at 50 mg/kg, po QD administrated for 8 to 40 days; type: organism-based; settings: in vivo, time 8-40 day
# SK-BR-3 = test: Antiproliferative activity against human SK-BR-3 cells assessed as inhibition of cell growth; type: functional, cell-based
# MDA-MB-361 = test: Antiproliferative activity against human MDA-MB-361 cells assessed as inhibition of cell growth; type: functional, cell-based
# MDA-MB-453 [20] = test: Antitumor activity against human MDA-MB-453 expressing erbB2 cells xenografted bearing female athymic nu-nu CD-1 mouse assessed as inhibition in tumor growth at 50 mg/kg, po bid administration and measured at 29 day relative to control; type: functional; settings: MDA-MB-453, 696 h
# [21] = Antitumor activity against human erbB2 transfected FRE cells xenografted bearing female athymic nu-nu CD-1 mouse assessed as apoptotic changes at 100 mg/kg, po administration and measured at 8 hrs by H&E staining method relative to control; type: functional
# CAMA-1 = test: Antiproliferative activity against human CAMA-1 cells assessed as inhibition of cell growth; type: functional, cell-based
smiles,measurement,setting,value
COCC(=O)NC/C=C/c1ccc2ncnc(Nc3ccc(Oc4ccc(C)nc4)c(C)c3)c2c1 [CP-724714],Cave,[1],1300 ng/mL
same,IC50,BT-20,> 10000 nM
same,inhibition in vivo at 100 mg/kg,LoVo,46%
same,IC50,MDA-MB-468,> 10000 nM
same,IC50,[2],10 nM
same,concentration at 0.5 h,[3],~12500 ng/mL
same,Activity,BT-474 [4],42%
same,IC50,HCC1419,1000 nM
same,inhibition at 1 µM,BT-474 [5],> 80%
same,IC50,[6],960 nM
same,inhibition in vivo at 100 mg/kg,COLO 205,46%
same,IC50,[7],990 nM
same,Activity,FRE,Active
same,inhibition in vivo at 100 mg/kg,MDA-MB-453 [8],83%
same,inhibition,BT-474 [9],Active
same,Activity,BT-474 [10],61%
same,Activity,MDA-MB-453 [11],69%
same,Activity,BT-474 [12],Active
same,IC50,MDA-MB-175-VII,810 nM
same,Activity,BT-474 [13],70%
same,Activity,[14],~75%
same,inhibition in vivo at 100 mg/kg,MDA-MB-453 [15],83%
same,inhibition in vivo at 100 mg/kg,MDA-MB-231,46%
same,inhibition in vivo at 10 mg/kg,BT-474 [16],42%
same,IC50,[17],> 10000 nM
same,inhibition in vivo at 30 mg/kg,BT-474 [18],81%
same,Activity,[19],Non-Toxic
same,IC50,SK-BR-3,950 nM
same,IC50,MDA-MB-361,3700 nM
same,inhibition in vivo at 50 mg/kg,MDA-MB-453 [20],66%
same,Activity,[21],75%
same,IC50,CAMA-1,> 10000 nM
